Experiments:
skin = assay: Demonstrations of anesthetizing plastic, tapes and adhesive films on skin; type: in vivo, human; details: employed instead of lidocaine
Text: […]. For instance, lidocaine added to polyvinyl chloride is all that is needed to create a soft, stretchy, elastic vinyl milled film or sheet. Like the common vinyl plasticizer di-isooctyl phthalate, lidocaine base slowly migrates to the surface of the formed object, to serve as a sustained source of anesthetic to tissue contacted by the device. The rate of drug delivery is governed by the selected concentration of the drug, the selected plastic resin and the acceptance rate of the part of the body with which the anesthetizing plastic is in contact. […]. A piece of such milled vinyl anesthetic material has remained taped to skin for 10 days without any diminution of anesthetizing effect or apparent loss of plasticization.
. […]. However, when this adhesive-topical anesthetic mixture is applied to polyethylene film as a carrier and is pressed with a warm hand to human skin, sufficient tackiness is observed that the film clings to the applied areas effectively, but can be readily removed. The tacky product is suitably dispensed with the tacky layer protected by contact with silicone coated release paper.
With such devices, in 1-3 hours topical anesthesia of the skin is established, which will last for 2-3 days if the film patch is left in place. Washing the skin e.g. with lauramide surfactant prior to applying the film decreases the onset time for skin anesthesia. […]

[1] = Experimental: In one case, in the course of manufacture, propafenone is dissolved in orally administratable solid granules such as coarse or fine powder of non-biodegradable thermoplastic resin. […] In another embodiment, the resin is formed on or as an implant to release the drug directly to heart tissue or the blood stream, or as a transdermal patch or as a drug-applying ear or nose plug.

Row | SMILES | duration of anesthesia following removal compared with lidocaine (skin) | amount held by PVC ([1]; PVC) | amount in solution in PVC that can be employed ([1]; PVC) | amount held by CPE ([1]; chlorinated polyethylene, by milling) | amount held by EP ([1]; ethylene propylene, by milling)
1 | CCCCOc1cc(C(=O)NCCN(CC)CC)c2ccccc2n1 [dibucaine] | substantially longer | – | – | – | –
2 | CCN(CC)CC(=O)Nc1c(C)cccc1C [lidocaine base] | – | about 50% | ≥ 50 % by weight | about 25% | about 25%
3 | CCCCNc1ccc(C(=O)OCCN(C)C)cc1 [tetracaine] | substantially longer | – | – | – | –

From patent publication US6461644B1, “Anesthetizing plastics, drug delivery plastics, and related medical products, systems and methods” (priority 1996, dated 2002)
